Measured values as given in ChEMBL document CHEMBL1152201, “Synthesis of 3,6-bicyclolides: a novel class of macrolide antibiotics” (2008).
≈ marks a conversion by molar mass, not a printed value.

Tests used:
Assay type in all cases: functional
[1] = test system: Staphylococcus aureus; test: Antibacterial activity against erythromycin-susceptible Staphylococcus aureus 29213 by broth-microdilution method; details: ATCC29213
[2] = test system: Staphylococcus aureus; test: Antibacterial activity against MLSB-resistant Staphylococcus aureus 27660 by broth-microdilution method
[3] = test system: Staphylococcus aureus; test: Antibacterial activity against methicillin-resistant Staphylococcus aureus 33591 by broth-microdilution method
[4] = test system: Streptococcus pneumoniae; test: Antibacterial activity against erythromycin-susceptible Streptococcus pneumoniae 49619 by broth-microdilution method
[5] = test system: Streptococcus pneumoniae; test: Antibacterial activity against erythromycin-resistant Streptococcus pneumoniae 7701 expressing mef gene by broth-microdilution method
[6] = test system: Streptococcus pneumoniae; test: Antibacterial activity against erythromycin-resistant Streptococcus pneumoniae 700906 expressing […] gene by broth-microdilution method
[7] = test system: Streptococcus pyogenes; test: Antibacterial activity against erythromycin-susceptible Streptococcus pyogenes 19615 by broth-microdilution method
[8] = test system: Streptococcus pyogenes; test: Antibacterial activity against erythromycin-resistant Streptococcus pyogenes 1323 expressing mef gene by broth-microdilution method
[9] = test system: Streptococcus pyogenes; test: Antibacterial activity against erythromycin-resistant Streptococcus pyogenes 2912 expressing erm gene by broth-microdilution method
[10] = test system: Haemophilus influenzae; test: Antibacterial activity against ampicillin-resistant Haemophilus influenzae 33929 by broth-microdilution method
[11] = test system: Haemophilus influenzae; test: Antibacterial activity against ampicillin-susceptible Haemophilus influenzae by broth-microdilution method
[12] = test system: Moraxella catarrhalis; test: Antibacterial activity against Moraxella catarrhalis by broth-microdilution method
[13] = test system: Staphylococcus aureus; test: Antibacterial activity against macrolide-susceptible Staphylococcus aureus Smith infected in mouse
[14] = test system: Staphylococcus aureus; test: Antibacterial activity against macrolide-resistant Staphylococcus aureus 7701 infected in mouse
[15] = test system: Staphylococcus aureus; test: Antibacterial activity against macrolide-susceptible Staphylococcus aureus Smith by broth-microdilution method

Compound	MIC [1] [µg/mL]	MIC [2] [µg/mL]	MIC [3] [µg/mL]	MIC [4] [µg/mL]	MIC [5] [µg/mL]	MIC [6] [µg/mL]	MIC [7] [µg/mL]	MIC [8] [µg/mL]	MIC [9] [µg/mL]	MIC [10] [µg/mL]	MIC [11] [µg/mL]	MIC [12] [µg/mL]	ED50 [13] [mg/kg]	ED50 [14] [mg/kg]	MIC [15] [µg/mL]
C=C1CO[C@H]2[C@H](C)[C@@H](O[C@@H]3O[C@H](C)C[C@H](N(C)C)[C@H]3O)[C@](C)(C[C@@H](C)[C@H](N)[C@H](C)[C@@H](O)[C@](C)(O)[C@@H](CC)OC(=O)[C@@H]2C)OC1	4 (≈ 6.36 µM)	4 (≈ 6.36 µM)	> 64	≤ 0.06	0.125 (≈ 0.199 µM)	> 64	≤ 0.06	0.25 (≈ 0.398 µM)	64 (≈ 102 µM)	32 (≈ 50.9 µM)	32 (≈ 50.9 µM)	0.5 (≈ 0.795 µM)	–	–	–
C=C1CO[C@H]2[C@H](C)[C@@H](O[C@@H]3O[C@H](C)C[C@H](N(C)C)[C@H]3O)[C@](C)(C[C@@H](C)C(=O)[C@H](C)[C@@H]3NC(=O)O[C@]3(C)[C@@H](CC)OC(=O)[C@@H]2C)OC1	0.125 (≈ 0.191 µM)	0.125 (≈ 0.191 µM)	> 64	≤ 0.06	–	> 64	≤ 0.06	0.125 (≈ 0.191 µM)	> 64	4 (≈ 6.13 µM)	2 (≈ 3.06 µM)	≤ 0.06	10	7	0.125 (≈ 0.191 µM)
C=C1CO[C@H]2[C@H](C)[C@@H](O[C@@H]3O[C@H](C)C[C@H](N(C)C)[C@H]3O)[C@](C)(C[C@@H](C)C(=N)[C@H](C)[C@@H](O)[C@](C)(O)[C@@H](CC)OC(=O)[C@@H]2C)OC1	2 (≈ 3.19 µM)	2 (≈ 3.19 µM)	> 64	0.125 (≈ 0.199 µM)	0.25 (≈ 0.399 µM)	> 64	0.125 (≈ 0.199 µM)	0.5 (≈ 0.798 µM)	64 (≈ 102 µM)	64 (≈ 102 µM)	16 (≈ 25.5 µM)	0.5 (≈ 0.798 µM)	–	–	–
C=C1CO[C@H]2[C@H](C)[C@@H](O[C@@H]3O[C@H](C)C[C@H](N(C)C)[C@H]3O)[C@](C)(C[C@@H](C)C(=O)[C@H](C)[C@@H](O)[C@](C)(O)[C@@H](CC)OC(=O)[C@@H]2C)OC1	1 (≈ 1.59 µM)	1 (≈ 1.59 µM)	> 64	0.125 (≈ 0.199 µM)	0.25 (≈ 0.398 µM)	> 64	0.25 (≈ 0.398 µM)	0.5 (≈ 0.796 µM)	> 64	64 (≈ 102 µM)	64 (≈ 102 µM)	0.5 (≈ 0.796 µM)	–	–	–
CC[C@H]1OC(=O)[C@H](C)[C@@H](O[C@H]2C[C@@](C)(OC)[C@@H](O)[C@H](C)O2)[C@H](C)[C@@H](O[C@@H]2O[C@H](C)C[C@H](N(C)C)[C@H]2O)[C@](C)(O)C[C@@H](C)C(=O)[C@H](C)[C@@H](O)[C@]1(C)O [ERYTHROMYCIN]	0.5 (≈ 0.681 µM)	> 64	> 64	≤ 0.06	4 (≈ 5.45 µM)	> 64	0.015 (≈ 0.0204 µM)	16 (≈ 21.8 µM)	> 64	4 (≈ 5.45 µM)	4 (≈ 5.45 µM)	0.13 (≈ 0.177 µM)	–	–	–
C=C1CO[C@H]2[C@H](C)[C@@H](O[C@@H]3O[C@H](C)C[C@H](N(C)C)[C@H]3O)[C@](C)(C[C@@H](C)/C(=N\O)[C@H](C)[C@@H](O)[C@](C)(O)[C@@H](CC)OC(=O)[C@@H]2C)OC1	1 (≈ 1.56 µM)	1 (≈ 1.56 µM)	> 64	≤ 0.06	0.25 (≈ 0.389 µM)	> 64	0.125 (≈ 0.194 µM)	0.25 (≈ 0.389 µM)	> 64	32 (≈ 49.8 µM)	32 (≈ 49.8 µM)	0.25 (≈ 0.389 µM)	–	–	–
CC[C@H]1OC(=O)[C@H](C)C(=O)[C@H](C)[C@@H](O[C@@H]2O[C@H](C)C[C@H](N(C)C)[C@H]2O)[C@](C)(OC)C[C@@H](C)C(=O)[C@H](C)[C@H]2N(CCCCn3cnc(-c4cccnc4)c3)C(=O)O[C@]12C [TELITHROMYCIN]	–	–	–	–	–	–	–	–	–	–	–	–	17.2	17.2	0.125 (≈ 0.154 µM)
